How the values were obtained:
[1] = tested on: uterus of ovariectomized mice; assay: Mouse uterotrophic assay; assay type: in vivo; conditions: 240 μg in combination with E2 (10 ng), sc, 4 days
IL-6 = assay: TNFα-induced IL-6 secretion in MCF-7 cells; assay type: cell-based, human; conditions: MCF-7, 10 ng/ml TNFα, ligand 10 μM, 24 hr
ERα = biological target: T1, ERα (Mus musculus, UniProt P19785); assay: ERα+ cells in mouse uterus; assay type: in vivo; conditions: mouse uterine tissue after the uterotrophic assay
T1 sequence (P19785 1-599): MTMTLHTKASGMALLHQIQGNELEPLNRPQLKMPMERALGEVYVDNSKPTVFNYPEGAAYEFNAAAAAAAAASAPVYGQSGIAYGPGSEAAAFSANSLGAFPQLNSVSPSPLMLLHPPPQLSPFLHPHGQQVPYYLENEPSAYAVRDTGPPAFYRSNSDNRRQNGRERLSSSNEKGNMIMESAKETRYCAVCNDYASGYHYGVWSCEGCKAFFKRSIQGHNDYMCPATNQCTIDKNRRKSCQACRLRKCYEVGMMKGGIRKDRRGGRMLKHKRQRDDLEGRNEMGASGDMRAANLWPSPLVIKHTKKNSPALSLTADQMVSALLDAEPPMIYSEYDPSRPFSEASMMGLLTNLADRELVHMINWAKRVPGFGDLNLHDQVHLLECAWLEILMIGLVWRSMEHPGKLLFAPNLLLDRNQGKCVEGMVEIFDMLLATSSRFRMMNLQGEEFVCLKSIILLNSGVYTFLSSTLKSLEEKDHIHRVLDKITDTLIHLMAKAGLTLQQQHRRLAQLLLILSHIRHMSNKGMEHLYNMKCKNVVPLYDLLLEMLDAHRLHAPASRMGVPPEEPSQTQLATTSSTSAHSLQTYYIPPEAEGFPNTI

[2] = tested on: complement component C3, lactoferrin, and aquaporin 5; assay: Uterine expression of E2-regulated genes; assay type: in vivo, mouse; conditions: ovariectomized mice, 4 days

ERα expression in uterus (ERα+ cells) (ERα): robustly inhibited ERα expression
SMILES: C[C@]12CC[C@@H]3c4ccc(O)cc4C[C@@H](CCCCCCCCC[S+]([O-])CCCC(F)(F)C(F)(F)F)[C@H]3[C@@H]1CC[C@@H]2O (some centres unmarked) [fulvestrant]
effect on E2-stimulated uterine growth [1]: significantly reduced the E2-stimulated uterine growth
inhibition of TNFα-induced IL-6 secretion (IL-6): did not inhibit IL-6 secretion
effect on E2-stimulated expression of genes in uterus ([2]; 240 μg in combination with E2 (10 ng)): markedly reduced the E2-stimulated expression levels of these genes
expression of E2-induced genes in uterus (compound alone) ([2]; 240 μg): failed to increase the expression of E2-induced genes
